Source: article PMC9697446 (International Journal of Molecular Sciences, 2022)
Where “and” joins values, the source holds several entries; their conditions need not be identical. Equal entries are not always repeated.

Assays:
EeAChE = target: T1, EeAChE (Electrophorus electricus, UniProt O42275); assay: biochemical; conditions: means ± SEM (n = 3); read-out: EeAChE Inhibition, IC50
T1 construct: purchased Sigma-Aldrich type VI-S
Description: We selected AChE from electric eels (Electrophorus electricus) for consistency with our other reports and because of its purity, specific activity, and lower cost compared to human AChE [64].
AChE and BChE activities were measured via the Ellman method. The assay solution consisted of 0.1 M K/Na phosphate buffer pH 7.5, 25 °C with the addition of 0.33 mM DTNB, 0.02 unit/mL of AChE or BChE and 1 mM of substrate (ATCh or BTCh, respectively). The assays were carried out with a reagent blank containing all components (except AChE orBChE) in order to account for the non-enzymatic hydrolysis of the substrate. In addition, an enzyme blank was included that contained all components except substrate to account for non-substrate sulfhydryl groups.
(§1) The test compounds were dissolved in DMSO, and the incubation mixture contained 2% (v/v) of the solvent. Enzyme inhibition was first assessed at a single concentration of 20 µM for each compound after a 5 min incubation at 25 °C in three separate experiments. […] The test compounds were added to the assay solution and preincubated at 25 °C with the enzymes for 5 min, followed by the addition of substrate. A parallel control was made for the assay solution with no inhibitor. Measurements were performed with a FLUOStar Optima microplate reader (BMG Labtech, Ortenberg, Germany). Each experiment was performed in triplicate. The results were expressed as the mean ± SEM. The reaction rates in the presence and absence of the inhibitor were compared, and the percent of residual enzyme activity due to the presence of test compounds was calculated.
PIand donepezil were purchased from Sigma-Aldrich. […] As the source of the enzyme, electric eel (Elecrophorus electricus) AChE (EeAChE, type VI-S, lyophilized powder, Sigma-Aldrich, Saint Louis, MO, USA) was used. The applicability of this enzyme was shown earlier

[1] = test system: isolated rat liver mitochondria; assay: Mitochondrial membrane potential and calcium-induced depolarization (safranine O); assay type: biochemical; conditions: for ΔΨm, CI (g/m) / ΔΨm, CII (s/r): depolarization after 10-min incubation with 30 µM compound, mean ± SD; for ΔΨm, CI (g/m): complex I substrates (glutamate, malate); for ΔΨm, CII (s/r): complex II substrate (succinate) in the presence of rotenone; for Effect on calcium-induced mitochondrial depolarization at 30 μM: 12.5 µM CaCl2
Description: The primary screening of new compounds to determine their effect on the mitochondrial membrane potential formed due to respiratory chain (RC) activity after additions of RC substrates was performed on isolated rat liver mitochondria. It can be used to estimate the probability of the potential toxicity of these compounds. Furthermore, the influence of the compounds on the calcium-dependent depolarization of isolated rat liver mitochondria in this assay made it possible to evaluate the effect on the mitochondrial permeability transition.
Rat liver mitochondria were isolated by conventional differential centrifugation from the livers of adult Wistar strain rats that fasted overnight, pH 7.6 [83, 84]. The mitochondrial protein concentration was determined using a biuret procedure with bovine serum albumin as the standard.
Safranine O (10 µM) was used as a membrane potential probe. Fluorescence intensity at 580 nm (excitation at 520 nm) was measured with a Wallac Victor 3 1420 Multilabel Counter (Perkin Elmer, Turku, Finland). The mitochondrial protein concentration was 0.2 mg/mL. The medium for measurements contained 75 mM sucrose, 225 mM mannitol, 10 mM K-HEPES (pH 7.4), 0.02 mM EGTA, and 1 mM KH2PO4. After a 5-min incubation, 5 mM glutamate/malate or 5 mM succinate in the presence of 0.5 µM rotenone were added to produce the mitochondrial potential. Then, the compounds (30 µM) or the same volume of the vehicle (DMSO) were injected into the mitochondrial suspension. After 15–20 min, 12.5 µM CaCl2 was added to each sample to induce the depolarization of mitochondria, and after 5 min, 0.5 µM CCCP was added for maximum depolarization of the mitochondria. The level of depolarization (ΔΨm) was calculated using the fluorescence value after 10-min incubation with 30 µM of compounds (or vehicle) normalized between the fluorescence measurements after substrate and CCCP addition, where fluorescence intensity at 580 nm was 100% after substrate addition and was 0% after CCCP addition.

porcine liver CES = assay: CES inhibition (4-nitrophenyl acetate hydrolysis); assay type: biochemical; conditions: ± SEM, n = 3;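 also: values are percent inhibition of CES activity not residual activity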
Description: The esterase profile was estimated using the human erythrocyteAChE, the equine serum BChE, and the porcine liver CES.
Human erythrocyte AChE, equine serum BChE, porcine liver CES, acetylthiocholine iodide (ATCh), butyrylthiocholine iodide (BTCh), 5,5′-dithio-bis-(2-nitrobenzoic acid) (DTNB), 4-nitrophenol acetate (4-NPA), and BNPP were purchased from Sigma-Aldrich (St. Louis, MO, USA).
The assay solution consisted of 0.1 M K/Na phosphate buffer pH 8.0, 25 °C, with the addition of 1 mM 4-nitrophenyl acetate and 0.02 unit/mL of CES. The assays were carried out with a blank containing all components, except CES.
as §1

[2] = ABTS radical cation scavenging assay; conditions: 1 h incubation, means ± SEM (n = 3); for IC50: 50% reduction of ABTS radical; for ABTS Scavenging Activity, TEAC Value: Trolox equivalent antioxidant capacity
Description: The ABTS assay is based on the direct binding of a model ABTS radical cation (2,2′-azino-bis-(3-ethylbenzothiazoline-6-sulfonate), ABTS^•+) by antioxidants. The measurements were performed as previously described in detail.
The radical scavenging activity was expressed as TEAC values (Trolox equivalent antioxidant capacity) and determined as the ratio between the slopes obtained from the linear correlation of the ABTS radical absorbance with the concentrations of the test compounds and Trolox.
The radical scavenging activity of the compounds was assessed using an ABTS radical decolorization assay. The procedure followed the reported protocol with minor modifications. ABTS (2,2ʹ-azino-bis-(3-ethylbenzothiazoline-6-sulfonic acid) diammonium salt) was purchased from TCI (Tokyo, Japan), while potassium persulfate (di-potassium peroxodisulfate), Trolox (6-hydroxy-2,5,7,8-tetramethylchroman-2-carboxylic acid), catechol, and DMSO were received from Sigma-Aldrich Chemical Co. (St. Louis, MO, USA). The ethanol was HPLC grade. Aqueous solutions were prepared using deionized water.
Trolox was used as the standard reference compound. Catechol was used as the positive control. All test and reference compounds were dissolved in DMSO. The final concentration of DMSO in the reaction mixture was 4% (v/v).
The solution of ABTS radical cation (ABTS^•+) was produced by mixing a 7 mM ABTS stock solution with a 2.45 mM aqueous solution of potassium persulfate in equal quantities and allowing them to react for 12–16 h at room temperature in the dark. At the time of activity determination, the ABTS^•+ solution was diluted with ethanol to adjust it to an absorbance value of about 0.80 ± 0.05 at 734 nm. A fresh working solution of ABTS^•+ was prepared for each assay.
The radical scavenging capacity of the compounds was analyzed by mixing 10 μL of test compound with 240 μL of ABTS^•+ working solution. The reduction in absorbance was measured spectrophotometrically at 734 nm using an xMark microplate UV/VIS spectrophotometer (Bio-Rad, Hercules, CA, USA). The reaction was monitored for an hour at 10 min intervals. Data were given for 1 h of incubation of compounds with ABTS^•+. EtOH blanks were run in each assay. The results were obtained from three replicates of each sample and three independent experiments.
The antioxidant capacity as a Trolox equivalent (TEAC values) was determined as the ratio between the slopes obtained from the linear correlation of concentrations of test compounds and Trolox with absorbance of ABTS radical.

T1 sequence (O42275 24-633): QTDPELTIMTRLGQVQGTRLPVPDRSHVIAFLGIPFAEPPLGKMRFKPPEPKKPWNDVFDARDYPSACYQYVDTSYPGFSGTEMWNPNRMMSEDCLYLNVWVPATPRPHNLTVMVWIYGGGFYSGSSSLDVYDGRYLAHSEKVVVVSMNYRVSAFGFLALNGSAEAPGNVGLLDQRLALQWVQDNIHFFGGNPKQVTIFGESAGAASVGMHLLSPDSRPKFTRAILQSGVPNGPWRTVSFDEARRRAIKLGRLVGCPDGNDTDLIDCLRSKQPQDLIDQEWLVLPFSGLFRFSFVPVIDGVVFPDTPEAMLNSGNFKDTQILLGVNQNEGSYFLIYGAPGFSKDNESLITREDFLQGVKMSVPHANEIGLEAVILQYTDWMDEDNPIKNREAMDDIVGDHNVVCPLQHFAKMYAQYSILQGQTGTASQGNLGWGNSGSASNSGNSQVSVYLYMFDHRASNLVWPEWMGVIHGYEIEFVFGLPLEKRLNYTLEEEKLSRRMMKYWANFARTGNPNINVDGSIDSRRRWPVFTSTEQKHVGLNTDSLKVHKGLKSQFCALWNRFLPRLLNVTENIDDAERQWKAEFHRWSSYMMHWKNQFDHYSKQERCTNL

Structure (SMILES) | IC50 (EeAChE) [µM] | ΔΨm, CI (g/m) [1] [%] | ΔΨm, CII (s/r) [1] [%] | CES inhibition at 20 µM (porcine liver CES) [%] | IC50 [2] [µM] | ABTS Scavenging Activity, TEAC Value [2] | Effect on calcium-induced mitochondrial depolarization at 30 μM [1]
CN(C)c1ccc2c(c1)Sc1cc(N(C)C)ccc1N2C(=O)CCn1c2c(c3ccccc31)CCC2 [Compound 4a] | 2.35 ± 0.23 | 8 ± 1 | 58 ± 1 | 19.4 ± 1.8 | 21 ± 1.4 | 0.99 ± 0.08 | 
CN(C)c1ccc2nc3ccc(=[N+](C)C)cc-3sc2c1 [MB, Methylene blue, reference compound] |  | 14 ± 7 | 40 ± 9 | 12.3 ± 1.5 |  | not detectable | completely suppress
Cc1ccc2c(c1)c1c(n2CCC(=O)N2c3ccc(N(C)C)cc3Sc3cc(N(C)C)ccc32)CCCCC1 [Compound 4k] | 4.12 ± 0.37 | 6 ± 3 | 62 ± 1 | 5.3 ± 0.6 | 15.4 ± 1.3 | 1.20 ± 0.13 | 
Cc1ccc2c(c1)c1c(n2CCC(=O)N2c3ccc(N(C)C)cc3Sc3cc(N(C)C)ccc32)CCCC1 [Compound 4c] | 1.22 ± 0.01 | 29 ± 1 | 50 ± 3 | 14.9 ± 1.3 | 17.6 ± 1.8 | 1.13 ± 0.09 | 
CN(C)c1ccc2c(c1)Sc1cc(N(C)C)ccc1N2C(=O)CCn1c2c(c3ccccc31)CCCCCC2 [Compound 4m] | 0.57 ± 0.02 | 23 ± 9 | 57 ± 6 | 13.0 ± 1.1 | 16.7 ± 1.6 | 1.11 ± 0.07 | 
CN(C)c1ccc2c(c1)Sc1cc(N(C)C)ccc1N2 [MBH2, reference compound] | 0.28 ± 0.02 | 0 | 18.2 ± 1.1 | 17.2 ± 1.8 |  | not detectable | 
COc1ccc2c(c1)c1c(n2CCC(=O)N2c3ccc(N(C)C)cc3Sc3cc(N(C)C)ccc32)CCCC1 [Compound 4d] | 2.25 ± 0.07 | 30 ± 4 | 53 ± 1 | 17.3 ± 1.5 | 39.3 ± 1.5 | 0.75 ± 0.05 | 
CN(C)c1ccc2c(c1)Sc1cc(N(C)C)ccc1N2C(=O)CCn1c2c(c3cc(OC(F)(F)F)ccc31)CCCC2 [Compound 4h] | 0.89 ± 0.09 | 15 ± 2 | 25 ± 1 | 3.1 ± 0.5 | 17.8 ± 1.4 | 1.10 ± 0.10 | considerably decrease
CN(C)c1ccc2c(c1)Sc1cc(N(C)C)ccc1N2C(=O)CCn1c2c(c3ccccc31)CCCCC2 [Compound 4j] | 2.7 ± 0.09 | 21 ± 9 | 66 ± 1 | 11.3 ± 1.2 | 16.3 ± 1.4 | 1.15 ± 0.09 | 
CC1CCc2c(c3cc(OC(F)(F)F)ccc3n2CCC(=O)N2c3ccc(N(C)C)cc3Sc3cc(N(C)C)ccc32)C1 (stereo not drawn) [Compound 4i] | 0.41 ± 0.03 | 6 ± 3 | 18 ± 2 | 3.5 ± 0.4 | 17.2 ± 1.2 | 1.14 ± 0.11 | completely suppress
Cc1ccc2c(c1)c1c(n2CCC(=O)N2c3ccc(N(C)C)cc3Sc3cc(N(C)C)ccc32)CCCCCC1 [Compound 4n] | 0.95 ± 0.07 | 23 ± 6 | 65 ± 1 | 33.1 ± 3.1 | 14.9 ± 1.2 | 1.20 ± 0.14 | 
COc1ccc2c(c1)c1c(n2CCC(=O)N2c3ccc(N(C)C)cc3Sc3cc(N(C)C)ccc32)CCC(C)C1 (stereo not drawn) [Compound 4e] | 1.92 ± 0.14 | 33 ± 1 | 50 ± 1 | 15.0 ± 1.3 | 13.7 ± 0.9 | 1.46 and 1.46 ± 0.11 | 
CN(C)c1ccc2c(c1)Sc1cc(N(C)C)ccc1N2C(=O)CCn1c2c(c3cc(F)ccc31)CCCC2 [Compound 4f] | 1.11 ± 0.12 | 27 ± 1 | 47 ± 1 | 6.6 ± 0.7 | 27.2 ± 1.6 | 0.85 ± 0.04 | 
CN(C)c1ccc2c(c1)Sc1cc(N(C)C)ccc1N2C(=O)CCn1c2c(c3ccccc31)CCCC2 [Compound 4b] | 2.42 ± 0.18 | 20 ± 1 | 42 ± 2 | 22.6 ± 2.1 | 24.3 ± 1.5 | 0.90 ± 0.04 | 
